Measured values as given in patent EP0791591B1, “Benzothiophenes, formulations containing same, and methods for their préparation” (ELI LILLY AND COMPANY, priority 1996, dated 1997).
Like-named read-outs stand apart in the source and are kept apart here. Marks after values point to notes of the source that are not given here. Values belong to the compound of their own block, whether it stands above or below them.

How the values were obtained:
Serum cholesterol = Serum cholesterol analysis in ovariectomized rats; format: in vivo, Sprague Dawley rats; details: oral, daily for 4 days, decrease versus ovariectomized controls
Source text: (§1) Seventy-five day old female Sprague Dawley rats (weight range of 200 to 225g) are obtained from Charles River Laboratories (Portage, MI). The animals are either bilaterally ovariectomized (OVX) or exposed to a Sham surgical procedure at Charles River Laboratories, and then shipped after one week. Upon arrival, they are housed in metal hanging cages in groups of 3 or 4 per cage and have ad libitum access to food (calcium content approximately 0.5%) and water for one week. Room temperature is maintained at 22.2° ± 1.7° C with a minimum relative humidity of 40%. The photoperiod in the room is 12 hours light and 12 hours dark.
(§2) Dosing Regimen Tissue Collection. After a one week acclimation period (therefore, two weeks post-OVX) daily dosing with test compound is initiated. 17α-ethynyl estradiol or the test compound is given orally, unless otherwise stated, as a suspension in 1% carboxymethylcellulose or dissolved in 20% cyclodextrin. Animals were dosed daily for 4 days. Following the dosing regimen, animals are weighed and anesthetized with a ketamine: Xylazine (2:1, V:V) mixture and a blood sample is collected by cardiac puncture. The animals are then sacrificed by asphyxiation with CO2, the uterus is removed through a midline incision, and a wet uterine weight is determined.
Cholesterol Analysis. Blood samples are allowed to clot at room temperature for 2 hours, and serum is obtained following centrifugation for 10 minutes at 3000 rpm. Serum cholesterol is determined using a Boehringer Mannheim Diagnostics high performance cholesterol assay. Briefly the cholesterol is oxidized to cholest-4-en-3-one and hydrogen peroxide. The hydrogen peroxide is then reacted with phenol and 4-aminophenazone in the presence of peroxidase to produce a p-quinone imine dye, which is read spectrophotemetrically at 500 nm. Cholesterol concentration is then calculated against a standard curve. The entire assay is automated using a Biomek Automated Workstation.

ovariectomized rats [1] = assay: Osteoporosis Test Procedure: 35-day ovariectomized rat, femur density; format: in vivo, Sprague Dawley rats; details: oral, in 20% hydroxypropyl β-cyclodextrin, daily for 35 days; result in words
Method: Following the General Preparation Procedure, infra, the rats are treated daily for 35 days (6 rats per treatment group) and sacrificed by carbon dioxide asphyxiation on the 36th day. The 35 day time period is sufficient to allow maximal reduction in bone density, measured as described herein. At the time of sacrifice, the uteri are removed, dissected free of extraneous tissue, and the fluid contents are expelled before determination of wet weight in order to confirm estrogen deficiency associated with complete ovariectomy. […] The uteri are then placed in 10% neutral buffered formalin to allow for subsequent histological analysis. The right femurs are excised and digitilized x-rays generated and analyzed by an image analysis program (NIH image) at the distal metaphysis. The proximal aspect of the tibiae from these animals are also scanned by quantitative computed tomography. In accordance with the above procedures, compounds of the present invention and ethynyl estradiol (EE2) in 20% hydroxypropyl β-cyclodextrin are orally administered to test animals.

ovariectomized rats [2] = assay: Uterine weight in ovariectomized rat post-menopausal model, 4 days oral dosing; details: daily for 4 days, increase versus ovariectomized controls
Source text: as §1, §2

[3] = test system: Uterine Eosinophil Peroxidase (EPO); assay: Uterine Eosinophil Peroxidase (EPO) Assay in ovariectomized rats; details: for Uterine Eosinophil (Vmax): oral, daily for 4 days, eosinophil peroxidase Vmax
Source text: as §1, §2
(§3) Uterine Eosinophil Peroxidase (EPO) Assay. Uteri are kept at 4° C until time of enzymatic analysis. The uteri are then homogenized in 50 volumes of 50 mM Tris buffer (pH - 8.0) containing 0.005% Triton X-100. Upon addition of 0.01% hydrogen peroxide and 10 mM O-phenylenediamine (final concentrations) in Tris buffer, increase in absorbance is monitored for one minute at 450 nm. The presence of eosonophils in the uterus is an indication of estrogenic activity of a compound. The maximal velocity of a 15 second interval is determined over the initial, linear portion of the reaction curve.

[4] = test system: MCF-7 breast adenocarcinoma cells (ATCC HTB 22); assay: MCF-7 Proliferation Assay (tritiated thymidine); format: cell-based; details: Homo sapiens, MCF7; MCF-7 cells, 48 hours with drug, tritiated thymidine pulse 4 hours
Method: MCF-7 breast adenocarcinoma cells (ATCC HTB 22) are maintained in MEM (minimal essential medium, phenol red-free, Sigma, St. Louis, MO) supplemented with 10% fetal bovine serum (FBS) (V/V), L-glutamine (2 mM), sodium pyruvate (1 mM), HEPES {(N-[2-hydroxyethyl]piperazine-N'-[2-ethanesulfonic acid]10 mM}, non-essential amino acids and bovine insulin (1 ug/mL) (maintenance medium). Ten days prior to assay, MCF-7 cells are switched to maintenance medium supplemented with 10% dextran coated charcoal stripped fetal bovine serum (DCC-FBS) assay medium) in place of 10% FBS to deplete internal stores of steroids. MCF-7 cells are removed from maintenance flasks using cell.dissociation medium (Ca++/Mg++ free HBSS (phenol red-free) supplemented with 10 mM HEPES and 2 mM EDTA). Cells are washed twice with assay medium and adjusted to 80,000 cells/mL. Approximately 100 µL (8,000 cells) are added to flat-bottom microculture wells (Costar 3596) and incubated at 37° C in a 5% CO2 humidified incubator for 48 hours to allow for cell adherence and equilibration after transfer. Serial dilutions of drugs or DMSO as a diluent control are prepared in assay medium and 50 µL transferred to triplicate microcultures followed by 50 µL assay medium for a final volume of 200 µL. […] Samples are counted by liquid scintillation using a Wallac BetaPlace β counter. […]

physchem = details: 66% dmf
[5] = test system: Uterine Eosinophil Peroxidase (EPO); details: rat, in vivo
Source text: as §1, §2, §3

Compound: C#C[C@]1(O)CC[C@H]2[C@@H]3CCc4cc(O)ccc4[C@H]3CC[C@@]21C [EE2, 17α-ethynyl estradiol, reference compound]
Serum Cholest. % Dec. (Serum cholesterol; 0.1 mg/kg): 87.3* %
bone loss (femur density) (ovariectomized rats [1]): prevented this loss
Uterine Weight % Inc (ovariectomized rats [2]; 0.1 mg/kg): 207.5* %
Uterine Eosinophil (Vmax) ([3]; 0.1 mg/kg): 205.8*
eosinophil infiltration into the uterus ([3]; result in words, stromal layer of ovariectomized rat uteri): substantial and expected increase

Compound: [O-][N+]1(CCOc2ccc(C(O)c3c(-c4ccc(O)cc4)sc4cc(O)ccc34)cc2)CCCCC1 (stereo not shown) [Example 6]
pKa (pKa determination): 6.41

Compound: O=C(c1ccc(OCC[N+]2([O-])CCCCC2)cc1)c1c(-c2ccc(O)cc2)sc2cc(O)ccc12 [Example 1, [2-(4-Hydroxyphenyl)-6-hydroxybenzo[b]thien-3-yl][4-[2-(1-piperidinyl)ethoxy]phenyl]methanone N-oxide]
Serum Cholest. % Dec. (Serum cholesterol; 0.1 mg/kg): 44.9* %
Serum Cholest. % Dec. (Serum cholesterol; 1.0 mg/kg): 68.7* %
Serum Cholest. % Dec. (Serum cholesterol; 10.0 mg/kg): 70.3* %
IC50 [4]: ~1000 nM
Uterine Weight % Inc (ovariectomized rats [2]; 0.1 mg/kg): 31.2* %
Uterine Weight % Inc (ovariectomized rats [2]; 1.0 mg/kg): 29.6* %
Uterine Weight % Inc (ovariectomized rats [2]; 10.0 mg/kg): 8.3%
pKa (pKa determination; 66% dmf): 6.28
Uterine Eosinophil (Vmax) ([3]; 0.1 mg/kg): 4.4
Uterine Eosinophil (Vmax) ([3]; 1.0 mg/kg): 4.6
Uterine Eosinophil (Vmax) ([3]; 10.0 mg/kg): 2.5

Compound: [2-(4-n-Butylsulfonoylphenyl)-6-n-butylsulfonoylbenzo[b]thien-3-yl][4-[2-(1-piperidinyl)ethoxy]phenyl]methanone N-oxide [Example 5]
Serum Cholest. % Dec. (Serum cholesterol; 1.0 mg/kg): 74.9* %
Uterine Eosinophil (Vmax) [5]: 4.7

Second part, led by results:

pKa (pKa determination): 6.49
Compound: [O-][N+]1(CCOc2ccc(Cc3c(-c4ccc(O)cc4)sc4cc(O)ccc34)cc2)CCCCC1 [Example 7, [2-(4-Hydroxyphenyl)-6-hydroxybenzo[b]thien-3-yl][4-[2-(1-piperidinyl)ethoxy]phenyl]methane N-oxide]

pKa (physchem): 6.39
Uterine Eosinophil (Vmax) [5]: 11.2
Compound: COc1ccc(-c2sc3cc(OC)ccc3c2C(=O)c2ccc(OCC[N+]3([O-])CCCCC3)cc2)cc1 [Example 2]
Serum Cholest. % Dec. (Serum cholesterol; 1.0 mg/kg): 65.7* %

pKa (physchem): 6.15
Uterine Eosinophil (Vmax) [5]: 21.7*
Compound: CC[N+]([O-])(CC)CCOc1ccc(C(=O)c2c(-c3ccc(O)cc3)sc3cc(O)ccc23)cc1 [Example 3, [2-(4-Hydroxyphenyl)-6-hydroxybenzo[b]thien-3-yl][4-[2-(N, N-diethyl)ethoxy]phenyl]methanone N-oxide]
Serum Cholest. % Dec. (Serum cholesterol; 1.0 mg/kg): 64.2* %

Uterine Eosinophil (Vmax) [5]: 4.1
Compound: O=C(c1ccc(OCC[N+]2([O-])CCOCC2)cc1)c1c(-c2ccc(O)cc2)sc2cc(O)ccc12 [Example 4, [2-(4-Hydroxyphenyl)-6-hydroxybenzo[b]thien-3-yl][4-[2-(1-morpholino)ethoxy]phenyl]methanone N-oxide]
Serum Cholest. % Dec. (Serum cholesterol; 1.0 mg/kg): 56.2* %
